For this test, the target named is BRD4(BD1) (Homo sapiens (Human), UniProt O60885). Kind of test: In vitro enzyme inhibition assay (BRD4 AlphaScreen). The test is classed as binding. On the procedure: His-tagged BRD4 was cloned, expressed and purified to homogeneity. […] BRD4 binding and inhibition was assessed by monitoring the interaction of biotinylated H4-tetraacetyl peptide (AnaSpec, H4K5/8/12/16(Ac), biotin-labeled) with the target using the AlphaScreen technology (Life Technologies). […] After 20 min incubation at room temp, Alpha streptavidin donor beads and Nickel Chelate acceptor beads were added to a final concentration of 5 μg/mL.
The ability of the compounds disclosed herein to inhibit BRD4 activity was quantified and the respective IC50 value was determined.
On the technique in general: Alpha assays give light when donor and acceptor beads are brought close together.

The mark [1] stands for this setting: in vitro enzyme inhibition assay.

Some results are limits rather than exact numbers.

The molecule `CCNc1cc(-c2ccc(OC)c(NS(C)(=O)=O)c2)cn(C)c1=O` [Example 111, N-[5-[5-(ethylamino)-1-methyl-6-oxopyridin-3-yl]-2-methoxyphenyl]methanesulfonamide] returned an IC50 (class symbols A/B/C) of 500 to 5000 nM.

As for `Cn1cc(-c2nc(S(C)(=O)=O)ncc2OCC2CC2)c2ccccc2c1=O` [Example 311, 4-[5-(cyclopropylmethoxy)-2-methylsulfonylpyrimidin-4-yl]-2-methylisoquinolin-1-one], the IC50 under setting [1] was under 500 nM.

The molecule `Cn1cc(-c2nc(N3CCCS3(=O)=O)ncc2Oc2ccc(F)cc2F)c2ccccc2c1=O` [Example 171, 4-[5-(2,4-difluorophenoxy)-2-(1,1-dioxo-1,2-thiazolidin-2-yl)pyrimidin-4-yl]-2-methylisoquinolin-1-one] had a concentration for half-maximal inhibition (IC50) under setting [1] of under 500 nM.

`CCCCc1cnc(S(C)(=O)=O)nc1-c1cn(C)c(=O)c2ccccc12` [Example 304, 4-(5-butyl-2-methylsulfonyl-pyrimidin-4-yl)-2-methylisoquinolin-1-one] gave an IC50 under setting [1] of under 500 nM.

In turn, `CCc1ccccc1-c1sc(NS(=O)(=O)CC)cc1-c1ccc(=O)n(C)c1` [Example 435, N-[5-(2-ethylphenyl)-4-(1-methyl-6-oxopyridin-3-yl)thiophen-2-yl] ethanesulfonamide] returned an IC50 under setting [1] of over 5000 nM.

`Cc1cc(-c2cc(OCC(F)(F)F)cc(S(C)(=O)=O)c2)cn(C)c1=O` [Example 328, 1,3-dimethyl-5-[3-methylsulfonyl-5-(2,2,2-trifluoroethoxy)phenyl]pyridin-2-one]: under setting [1], the half-inhibitory concentration (IC50) is under 500 nM.

As to `Cc1cc(-c2nc(S(C)(=O)=O)ncc2Oc2ccc(F)cc2F)cn(C(C)C)c1=O` [Example 510, 5-[5-(2,4-difluorophenoxy)-2-methylsulfonylpyrimidin-4-yl]-3-methyl-1-propan-2-ylpyridin-2-one], under setting [1], the 50% inhibitory concentration (IC50) lay within 500 to 5000 nM.

Where the note is “class symbols A/B/C”, `CCS(=O)(=O)c1cccc(-c2cn(C)c(=O)c3ccncc23)c1` [Example 126, 4-(3-ethylsulfonylphenyl)-2-methyl-2,6-naphthyridin-1-one] yielded an IC50 of over 5000 nM.

Molecule `Cn1cc(-c2cccc(S(=O)(=O)NC3CC3)c2)c2ccccc2c1=O` [Example 6, N-cyclopropyl-3-(2-methyl-1-oxoisoquinolin-4-yl) benzenesulfonamide] had an IC50 (class symbols A/B/C) of 500 to 5000 nM.

Consider `Cn1cc(-c2cccc(NS(C)(=O)=O)c2)cc(OCc2ccccc2)c1=O` [Example 471, N-[3-(1-methyl-6-oxo-5-phenylmethoxypyridin-3-yl)phenyl]methanesulfonamide], for which, under setting [1], the concentration for half-maximal inhibition (IC50) was over 5000 nM.

For the setting “class symbols A/B/C”, `Cn1cc(-c2cccc(S(=O)(=O)N3CCOCC3)c2)c2ccccc2c1=O` [Example 14, 2-methyl-4-(3-morpholin-4-yl-sulfonylphenyl) isoquinolin-1-one] gave an IC50 of 500 to 5000 nM.

The molecule `CCc1cnc(NS(=O)(=O)CC)nc1-c1cn(C)c(=O)c2ccccc12` [Example 300, N-[5-ethyl-4-(2-methyl-1-oxoisoquinolin-4-yl)pyrimidin-2-yl]ethanesulfonamide] registered an IC50 under setting [1] of under 500 nM.

Molecule `CCS(=O)(=O)Nc1ccc(Oc2ccc(F)cc2F)c(-c2cc(NC)c(=O)n(C)c2)c1` [Example 410, N-[4-(2,4-difluorophenoxy)-3-[1-methyl-5-(methylamino)-6-oxopyridin-3-yl]phenyl]ethanesulfonamide] had an IC50 under setting [1] of under 500 nM.

On to `CCS(=O)(=O)c1cccc(-c2cc(N)c(=O)n(C)c2)c1` [Example 108, 3-amino-5-(3-ethylsulfonylphenyl)-1-methylpyridin-2-one], for which, where the note is “class symbols A/B/C”, the IC50 was over 5000 nM.

In turn, `CCS(=O)(=O)Nc1nc(Oc2ccc(F)cc2F)cc(-c2cc(C)c(=O)n(C)c2)n1` [Example 346, N-[4-(2,4-difluorophenoxy)-6-(1,5-dimethyl-6-oxopyridin-3-yl)pyrimidin-2-yl]ethanesulfonamide] yielded an IC50 under setting [1] of 500 to 5000 nM.

Molecule `CCS(=O)(=O)c1ccc(OC)c(-c2cc(O)c(=O)n(C)c2)c1` [Example 461, 5-(5-ethylsulfonyl-2-methoxyphenyl)-3-hydroxy-1-methylpyridin-2-one] registered an IC50 under setting [1] of 500 to 5000 nM.

For the molecule `CCS(=O)(=O)Nc1ncc(Oc2ccc(F)cc2F)c(-c2cc(C)c(=O)n(CC3CCC3)c2)n1` [Example 299, N-[4-[1-(cyclobutylmethyl)-5-methyl-6-oxopyridin-3-yl]-5-(2,4-difluorophenoxy)pyrimidin-2-yl]ethanesulfonamide], the IC50 under setting [1] was 500 to 5000 nM.

The molecule `CCCc1cnc(NS(=O)(=O)CC)nc1-c1cc(OC)c(=O)n(C)c1` [Example 361, N-[4-(5-methoxy-1-methyl-6-oxopyridin-3-yl)-5-propylpyrimidin-2-yl]ethanesulfonamide] yielded an IC50 under setting [1] of under 500 nM.

`Cn1cc(-c2cccc(S(N)(=O)=O)c2)c2ccncc2c1=O` [Example 55, 3-(2-methyl-1-oxo-2,7-naphthyridin-4-yl) benzenesulfonamide] showed an IC50 (class symbols A/B/C) of over 5000 nM.

In the case of `CCS(=O)(=O)Nc1cc(OCc2ccccc2)cc(-c2cc(C)c(=O)n(C)c2)c1` [Example 395, N-[3-(1,5-dimethyl-6-oxopyridin-3-yl)-5-phenylmethoxyphenyl]ethanesulfonamide], under setting [1], the IC50 is under 500 nM.

Take `Cc1cc(-c2cc(S(C)(=O)=O)ccc2OCCC(F)(F)F)cn(C)c1=O` [Example 405, 1,3-dimethyl-5-[5-methylsulfonyl-2-(3,3,3-trifluoropropoxy)phenyl]pyridin-2-one]: the IC50 under setting [1] is under 500 nM.

Consider `CCS(=O)(=O)Nc1cc(-c2cc(C)c(=O)n(C)c2)nc(Oc2ccc(F)cc2F)n1` [Example 347, N-[2-(2,4-difluorophenoxy)-6-(1,5-dimethyl-6-oxopyridin-3-yl)pyrimidin-4-yl]ethanesulfonamide], for which the IC50 under setting [1] lay within 500 to 5000 nM.

The molecule `Cc1cc(-c2cc(S(C)(=O)=O)ccc2OCC2CC2)cn(Cc2ccccc2)c1=O` [Example 485, 1-benzyl-5-[2-(cyclopropylmethoxy)-5-methylsulfonylphenyl]-3-methylpyridin-2-one] came in with an IC50 under setting [1] of 500 to 5000 nM.

In turn, `CCS(=O)(=O)Nc1cccc(-c2cc(C)c(=O)n(C)n2)c1` [Example 480, N-[3-(1,5-dimethyl-6-oxopyridazin-3-yl)phenyl]ethanesulfonamide] showed a 50% inhibitory concentration (IC50) under setting [1] of 500 to 5000 nM.

Take `CCCCc1cnc(NS(=O)(=O)CC)nc1-c1cc(Cl)c(=O)n(C)c1` [Example 360, N-[5-butyl-4-(5-chloro-1-methyl-6-oxopyridin-3-yl)pyrimidin-2-yl]ethanesulfonamide]: the IC50 under setting [1] is under 500 nM.

`Cc1cc(=O)n(C)cc1-c1cc(S(C)(=O)=O)ccc1NCC1CC1` [Example 422, 5-[2-(cyclopropylmethylamino)-5-methylsulfonylphenyl]-1,4-dimethylpyridin-2-one] came in with an IC50 under setting [1] of 500 to 5000 nM.

Where the note is “class symbols A/B/C”, `Cc1c(-c2cccc(NS(C)(=O)=O)c2)cn(C)c(=O)c1C` [Example 97, N-[3-(1,4,5-trimethyl-6-oxopyridin-3-yl)phenyl]methanesulfonamide] yielded an IC50 of 500 to 5000 nM.

Molecule `CCc1ccc(S(C)(=O)=O)cc1-c1cn(C)c(=O)c2ccccc12` [Example 316, 4-(2-ethyl-5-methylsulfonylphenyl)-2-methylisoquinolin-1-one] had an IC50 under setting [1] of under 500 nM.

In turn, `[2H]C([2H])([2H])n1cc(-c2cc(S(=O)(=O)CC)ccc2OCC)c(C)cc1=O` [Example 456, 5-(2-ethoxy-5-ethylsulfonylphenyl)-1-(^2H3)methyl-4-methylpyridin-2-one] came in with an IC50 under setting [1] of under 500 nM.

`Cc1cc(-c2cc(S(=O)(=O)C(C)C)ccc2OCC2CC2)cn(C)c1=O` [Example 394, 5-[2-(cyclopropylmethoxy)-5-propan-2-ylsulfonylphenyl]-1,3-dimethylpyridin-2-one] gave a concentration for half-maximal inhibition (IC50) under setting [1] of under 500 nM.

The molecule `CCS(=O)(=O)Nc1cc(-c2ccc(=O)n(C)c2)c(-c2ccccc2)s1` [Example 424, N-[4-(1-methyl-6-oxopyridin-3-yl)-5-phenylthiophen-2-yl]ethanesulfonamide] yielded an IC50 under setting [1] of over 5000 nM.

`COc1cc(F)c(CS(C)(=O)=O)cc1-c1ccc(=O)n(C)c1` [Example 475, 5-[4-fluoro-2-methoxy-5-(methylsulfonylmethyl)phenyl]-1-methylpyridin-2-one] yielded an IC50 under setting [1] of 500 to 5000 nM.

For `CNc1cc(-c2cc(NS(C)(=O)=O)ccc2Oc2ccc(F)cc2F)cn(C)c1=O` [Example 412, N-[4-(2,4-difluorophenoxy)-3-[1-methyl-5-(methylamino)-6-oxopyridin-3-yl]phenyl]methanesulfonamide], under setting [1], the IC50 was under 500 nM.

Consider `CCOc1ccc(S(=O)(=O)CC)cc1-c1cn(C)c(=O)cc1C` [Example 458, 5-(2-ethoxy-5-ethylsulfonylphenyl)-1,4-dimethylpyridin-2-one], for which, under setting [1], the IC50 is under 500 nM.

In turn, `COc1ccc(-c2cc(NCC3CC3)c(=O)n(C)c2)cc1NS(C)(=O)=O` [Example 112, N-[5-[5-(cyclopropylmethylamino)-1-methyl-6-oxopyridin-3-yl]-2-methoxyphenyl]methanesulfonamide] yielded an IC50 (class symbols A/B/C) of 500 to 5000 nM.

As to `CCNS(=O)(=O)c1cccc(-c2cn(C)c(=O)c3ccncc23)c1` [Example 124, N-ethyl-3-(2-methyl-1-oxo-2,6-naphthyridin-4-yl) benzenesulfonamide], where the note is “class symbols A/B/C”, the IC50 lay within 500 to 5000 nM.

In turn, `[2H]C([2H])([2H])n1cc(-c2cc(NS(=O)(=O)CC)ccc2Oc2ccc(F)cc2F)ccc1=O` [Example 141, N-{4-(2,4-difluorophenoxy)-3-[1-(^2H3)methyl-6-oxopyridin-3-yl]phenyl}ethanesulfonamide] registered an IC50 under setting [1] of under 500 nM.

`CCN(CC)c1cc(-c2ccc(OC)c(NS(C)(=O)=O)c2)cn(C)c1=O` [Example 114, N-[5-[5-(diethylamino)-1-methyl-6-oxopyridin-3-yl]-2-methoxyphenyl]methanesulfonamide] displayed an IC50 (class symbols A/B/C) of 500 to 5000 nM.

Turning to `Cn1cc(-c2cc(S(C)(=O)=O)ccc2OCC2CCC2)ccc1=O` [Example 460, 5-[2-(cyclobutylmethoxy)-5-methylsulfonylphenyl]-1-methylpyridin-2-one], the IC50 under setting [1] was under 500 nM.

Usually IC50 stands for the concentration that inhibits the measured activity by half. The low end stands for inhibition by little substance, the high end for a need for much substance.

The record behind these values is US10023592B2, “Bromodomain inhibitors” (Celgene Quanticel Research, Inc., priority 2013, dated 2018).
